Reference: US5789412A, “Piperazides derived from arylpiperazine, processes for their preparation, their use as medicaments and pharmaceutical compositions comprising them” (Pierre Fabre Medicament, priority 1994, dated 1998)
pEC50, pKi: −log10 of the molar value. Counter-ions that a name gives are not always drawn. Like-named read-outs stand apart in the source and are kept apart here.

What was measured:
human 5HT1Dα receptor = biological target: T1, human 5HT1Dα receptor (Homo sapiens, UniProt P28221); assay: Binding to human 5HT1Dα receptor ([3H]-5CT displacement)
T1 construct: expressed in transfected cells
T1 sequence (P28221 whole entry): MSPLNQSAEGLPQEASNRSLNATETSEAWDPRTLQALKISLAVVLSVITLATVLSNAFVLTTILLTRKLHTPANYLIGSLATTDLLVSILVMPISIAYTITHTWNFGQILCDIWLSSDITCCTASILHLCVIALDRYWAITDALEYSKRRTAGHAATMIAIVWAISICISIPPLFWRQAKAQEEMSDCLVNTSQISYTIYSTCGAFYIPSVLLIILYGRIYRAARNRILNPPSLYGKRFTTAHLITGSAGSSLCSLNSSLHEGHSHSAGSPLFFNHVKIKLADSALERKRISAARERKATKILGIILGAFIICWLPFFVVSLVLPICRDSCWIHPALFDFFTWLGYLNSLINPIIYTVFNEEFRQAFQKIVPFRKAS
Procedure: (§1) Human 5HT1Dα and 5HT1Dβ receptors were cloned according to the sequences published by M. Hamblin and M. Metcalf, Mol. Pharmacol., 40, 143 (1991) and Weinshenk et al., Proc. Natl. Acad. Sci. 89, 3630 (1992).
(§2) Transitory transfection and permanent transfection of the genes for these receptors was carried out in cell lines Cos-7 and CHO-K1 using an electroporator.
(§3) The binding of the derivatives of the present invention with the human 5HT1Dα, 5HT1Dβ and 5HT1A receptors was studied according to the method described by P. Pauwels and C. Palmier (Neuropharmacology, 33, 67, 1994).
(§4) The incubation media for these binding measurements comprise 0.4 ml of cell membrane preparation, 0.05 ml of a tritiated ligand [[3H]-5CT (final concentration: 2 nM) for the 5HT1Dα and 5HT1Dβ receptors and [3H]-8OH-DPAT (final concentration: 1 nM) for the 5HT1A receptor] and 0.05 ml of the test molecule (final concentrations of 0.1 nM to 1000 nM) or 10 μM (final concentration) of serotonin (5HT1Dα and 5HT1Dβ) or 1 μM (final concentration) of spiroxatrine (5HT1A).

human 5HT1Dβ receptor [1] = biological target: T2, human 5HT1Dβ receptor (Homo sapiens, UniProt P28222); assay: Binding to human 5HT1Dβ receptor ([3H]-5CT displacement)
T2 construct: expressed in transfected cells; host or cells: CHO-K1
T2 sequence (P28222 whole entry): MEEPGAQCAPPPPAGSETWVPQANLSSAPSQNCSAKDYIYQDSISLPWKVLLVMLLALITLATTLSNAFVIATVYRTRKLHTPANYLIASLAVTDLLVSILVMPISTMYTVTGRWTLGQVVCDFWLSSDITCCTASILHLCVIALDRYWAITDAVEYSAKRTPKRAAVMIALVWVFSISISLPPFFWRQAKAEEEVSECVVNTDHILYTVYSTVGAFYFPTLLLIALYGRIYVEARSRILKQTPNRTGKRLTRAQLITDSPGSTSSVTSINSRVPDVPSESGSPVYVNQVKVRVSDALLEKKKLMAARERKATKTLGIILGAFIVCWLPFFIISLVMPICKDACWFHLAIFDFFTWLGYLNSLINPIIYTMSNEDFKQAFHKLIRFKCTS
Procedure: as §1, §2, §3, §4

human 5HT1A receptor = biological target: T3, human 5HT1A receptor (Homo sapiens, UniProt P08908); assay: Binding to human 5HT1A receptor ([3H]-8OH-DPAT displacement, HeLa HA7 cell line); details: read-out: 5HT1A Ki (affinity for the receptors concerned)
T3 construct: host or cells: HeLa HA7
T3 sequence (P08908 1-422): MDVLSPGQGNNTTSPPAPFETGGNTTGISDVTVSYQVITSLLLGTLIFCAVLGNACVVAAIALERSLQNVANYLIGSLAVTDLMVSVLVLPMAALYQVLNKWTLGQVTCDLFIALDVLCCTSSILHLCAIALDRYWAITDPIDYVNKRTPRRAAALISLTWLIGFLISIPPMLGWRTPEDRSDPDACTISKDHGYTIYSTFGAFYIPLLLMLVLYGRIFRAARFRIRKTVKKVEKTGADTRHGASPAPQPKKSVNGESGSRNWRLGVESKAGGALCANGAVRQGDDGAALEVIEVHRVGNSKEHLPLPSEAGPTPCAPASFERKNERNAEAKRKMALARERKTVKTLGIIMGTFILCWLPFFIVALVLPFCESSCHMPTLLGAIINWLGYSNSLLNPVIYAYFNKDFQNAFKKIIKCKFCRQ
Description: The binding of the derivatives of the present invention with the human 5HT1Dα, 5HT1Dβ and 5HT1A receptors was studied according to the method described by P. Pauwels and C.

human 5HT1Dβ receptor [2] = biological target: T2, human 5HT1Dβ receptor; assay: Inhibition of forskolin-stimulated cyclic AMP formation mediated by human 5HT1Dβ receptor in transfected CHO-K1 cells (intrinsic agonist activity); type: cell-based
Procedure: as §1, §2
Inhibition of the formation of cyclic AMP (stimulated by forskolin) mediated by the human 5HT1Dβ receptor was studied in CHO-K1 cells transfected with the receptor according to the technique described beforehand for the 5HT1B receptor (P. Pauwels and C. Palmier, Neuropharmacology, 33, 67, 1994).
**Intrinsic agonist acitivity (inhibition of the formation of cyclic AMP
induced by forskolin in CHO--K1 cells).

[3] = [3H]-5CT 2 nM, cell membrane preparation, read-out: 5HT1Dα Ki (affinity for the receptors concerned)
[4] = [3H]-5CT 2 nM, cell membrane preparation, read-out: 5HT1Dβ Ki (affinity for the receptors concerned)
[5] = [3H]-8OH-DPAT 1 nM, HeLa HA7 cell line
[6] = CHO-K1 cells, forskolin stimulated, read-out: 5HT1Dβ EC50 (intrinsic agonist activity, inhibition of the formation of cyclic AMP induced by forskolin)

| SMILES | pKi (human 5HT1Dα receptor; [3]) | pKi (human 5HT1Dβ receptor [1]; [4]) | pKi (human 5HT1A receptor; [5]) | pEC50 (human 5HT1Dβ receptor [2]; [6]) | pKi (human 5HT1A receptor) | pKi (human 5HT1Dα receptor) | pKi (human 5HT1Dβ receptor [1]) | pEC50 (human 5HT1Dβ receptor [2]) |
| --- | --- | --- | --- | --- | --- | --- | --- | --- |
| COc1ccc(NC(=O)N2CCN(c3ccccc3C)CC2)cc1N1CCN(C)CC1 [Example 1, N-[4-methoxy-3-(4-methylpiperazin-1-yl)phenyl]-4-(o-tolylpiperazin-1-ylamide fumarate] | 7.32 | 8.64 | 6.40 | < 6.00 | – | – | – | – |
| COc1ccc(NC(=O)N2CCN(c3ccccc3OC)CC2)cc1N1CCN(C)CC1 [Example 2, N-[4-Methoxy-3-(4-methylpiperazin-1-yl)phenyl]-4-(o-methoxyphenyl)piperazin-1-ylamide fumarate] | 7.17 | 8.70 | – | < 6.00 | – | – | – | – |
| COc1ccc(N2CCN(C(=O)Nc3ccc(OC)c(N4CCN(C)CC4)c3)CC2)cc1 [Example 3, fumarate] | 6.64 | 8.08 | 6.00 | < 6.00 | – | – | – | – |
| COc1ccc(NC(=O)N2CCN(c3cccc(C)c3C)CC2)cc1N1CCN(C)CC1 [Example 5, fumarate] | 7.38 | 8.92 | 6.25 | < 6.00 | – | – | – | – |
| COc1ccc(NC(=O)N2CCN(c3ccc([N+](=O)[O-])cc3)CC2)cc1N1CCN(C)CC1 [Example 6, N-[4-[4-Methoxy-3-(4-methylpiperazin-1-yl)phenyl]-4-(p-nitrophenyl)piperazin-1-ylamide fumarate] | 6.94 | 8.30 | 6.34 | < 6.00 | – | – | – | – |
| COc1ccc(NC(=O)N2CCN(c3ccc4c(c3)OCO4)CC2)cc1N1CCN(C)CC1 [Example 7, N-[4-Methoxy-3-(4-methylpiperazin-1-yl)phenyl]-4-(3,4-methylenedioxy)phenylpiperazin-1-ylamide difumarate] | 6.85 | 8.09 | 6.10 | < 6.00 | – | – | – | – |
| COc1ccc(NC(=O)N2CCN(c3ccccc3C#N)CC2)cc1N1CCN(C)CC1 [Example 8, N-[4-Methoxy-3-(4-methylpiperazin-1-yl)phenyl]-4-(o-cyanophenyl)piperazin-1-ylamide fumarate] | 6.92 | 7.95 | 6.15 | < 6.00 | – | – | – | – |
| COc1ccc(NCC(=O)N2CCN(c3ccccc3C)CC2)cc1N1CCN(C)CC1 [Example 12, 2-[4-Methoxy-3-(4-methylpiperazin-1-yl)phenylamino]-1-(4-o-tolylpiperazin-1-yl)ethanone fumarate] | 6.38 | 7.55 | – | < 6.00 | 5.52 | – | – | – |
| Cc1ccccc1N1CCN(C(=O)COc2ccc3cccc(N4CCN(C)CC4)c3c2)CC1 [Example 16, 2-[8-(4-Methylpiperazin-1-yl)naphthalen-2-yloxy]-1-(4-o-tolylpiperazin-1-yl)ethanone] | 9.17 | 9.55 | 7.30 | < 6.00 | – | – | – | – |
| CN1CCN(c2cccc3ccc(OC(=O)N4CCN(c5ccccc5)CC4)cc23)CC1 [Example 19, 8-(4-Methylpiperazin-1-yl)naphthalen-2-yl 4-phenylpiperazin-1-yloate] | – | – | 7.80 | – | – | 8.55 | 9.30 | < 6.00 |
